Measurements published in US6930088B2, “Conformationally constrained backbone cyclized somatostatin analogs” (Peptor Ltd., priority 1998, dated 2005).
Like-named read-outs stand apart in the source and are kept apart here. *1 amine or outer side, *2 acyl side, *3 side chain or, on linkers, in order; H or OH if unused. Where a SMILES comes first, the peptide text is derived from it. Bridges are numbered along the chain shown (N, C = ends). Where no end group is shown, it is not given here. [ ]: non-standard residue; d: D form. Phe(Nα-CH2CH2CO) = O=C([C@H](Cc1ccccc1)N(CCC(=O)[*:3])[*:1])[*:2]; N(2-aminoethyl)Phe = O=C([C@H](Cc1ccccc1)N(CCN[*:3])[*:1])[*:2]; N(2-mercaptoethyl)Gly = O=C(CN(CCS[*:3])[*:1])[*:2]; N(CH2CH2CO)Gly = O=C(CN(CCC(=O)[*:3])[*:1])[*:2]; 2Nal = N[C@@H](Cc1ccc2ccccc2c1)C(=O)O; d2Nal = N[C@H](Cc1ccc2ccccc2c1)C(=O)O; Phe(C1) = not defined here; Phe(C2) = not defined here; Phe(C3) = not defined here

Tests used:
SSTR-2 = target: T1, SSTR-2 (Homo sapiens, UniProt P30874); experiment: Inhibition of 125I-Tyr11-SRIF binding to membrane preparations expressing SSTR-2
T1 construct: expressed in transfected cells
T1 sequence (P30874 whole entry): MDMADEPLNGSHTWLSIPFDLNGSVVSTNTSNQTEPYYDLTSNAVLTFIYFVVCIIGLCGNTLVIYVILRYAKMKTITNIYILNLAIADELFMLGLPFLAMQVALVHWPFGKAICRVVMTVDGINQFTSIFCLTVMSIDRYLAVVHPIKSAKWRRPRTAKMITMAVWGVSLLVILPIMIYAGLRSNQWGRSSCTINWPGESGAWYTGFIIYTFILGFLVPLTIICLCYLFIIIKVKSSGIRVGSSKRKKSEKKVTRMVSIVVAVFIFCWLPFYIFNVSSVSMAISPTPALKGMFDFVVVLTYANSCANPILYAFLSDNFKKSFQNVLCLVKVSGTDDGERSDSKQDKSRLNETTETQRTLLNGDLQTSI
Method: (§1) The receptor preparations used for these tests were either from the cloned human receptors selectively and stably expressed in Chinese Hamster Ovary (CHO) cells or from cell lines naturally expressing the SSTRs. […] The binding reactions were filtered, the filters were washed and the bound radioactivity was counted in gamma counter. Non specific binding was defined as the radioactivity remaining bound in the presence of 1 μM unlabeled SRIF-14.
(§2) In order to validate positive signals of the binding tests, and to eliminate non-specific signals, samples of irrelevant peptides, such as GnRH, that were synthesized and handled using the same procedures, were tested in the same assays as negative control samples. These samples had no binding activity in any of the assays. Results are shown below in Tables 5 and 6 and FIG. 1.

SSTR-5 = target: T2, SSTR-5 (Homo sapiens, UniProt P35346); experiment: Inhibition of 125I-Tyr11-SRIF binding to membrane preparations expressing SSTR-5; settings: for IC50: Table 15, read-out: IC50 (nM) for SST-R 5
T2 construct: expressed in transfected cells
T2 sequence (P35346 whole entry): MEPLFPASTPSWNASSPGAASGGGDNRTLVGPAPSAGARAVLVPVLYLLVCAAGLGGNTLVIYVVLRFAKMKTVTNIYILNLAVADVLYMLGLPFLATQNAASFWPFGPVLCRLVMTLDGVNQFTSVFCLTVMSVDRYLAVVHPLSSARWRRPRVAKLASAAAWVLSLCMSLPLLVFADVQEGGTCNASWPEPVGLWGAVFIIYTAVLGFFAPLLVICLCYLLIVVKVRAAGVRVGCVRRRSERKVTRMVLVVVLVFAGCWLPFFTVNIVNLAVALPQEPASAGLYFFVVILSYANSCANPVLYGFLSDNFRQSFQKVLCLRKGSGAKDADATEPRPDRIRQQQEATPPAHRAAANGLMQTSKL
Method: as §1, §2

SSTR-3 = target: T3, SSTR-3 (Homo sapiens, UniProt P32745); experiment: Inhibition of 125I-Tyr11-SRIF binding to membrane preparations expressing SSTR-3; settings: for IC50: Table 15, read-out: IC50 (nM) for SST-R 3
T3 construct: expressed in transfected cells
T3 sequence (P32745 whole entry): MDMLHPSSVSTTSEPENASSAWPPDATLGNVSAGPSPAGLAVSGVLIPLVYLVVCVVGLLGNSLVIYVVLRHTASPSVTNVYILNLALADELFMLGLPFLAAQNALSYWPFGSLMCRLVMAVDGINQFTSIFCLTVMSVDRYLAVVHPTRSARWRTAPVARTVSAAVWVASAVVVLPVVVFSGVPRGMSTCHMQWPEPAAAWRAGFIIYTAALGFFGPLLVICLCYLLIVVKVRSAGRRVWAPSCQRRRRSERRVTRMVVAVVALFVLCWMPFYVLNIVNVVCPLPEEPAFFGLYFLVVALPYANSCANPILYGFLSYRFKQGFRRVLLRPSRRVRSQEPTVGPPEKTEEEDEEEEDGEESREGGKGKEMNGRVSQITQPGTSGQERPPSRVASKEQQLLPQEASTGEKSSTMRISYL
Method: as §1, with “The somatostatin analogs were tested for their potency in inhibition of the binding of ^125I-Tyr^11-SRIF (based on the method described by Raynor et. al., Molecular Pharmacology, 1993, 43, 838-844) to membrane preparations expressing the transmembranal somatostatin receptors (SSTR-1, 2, 3, 4 or 5). The receptor” for “The receptor”
as §2

in vitro = settings: kidney or brush border membranes
Method: The assay was based on HPLC determination of peptide degradation as a function of time in renal homogenate at 37° C.

[1] = test system: somatostatin receptors (SSTR-1, 2, 3, 4 or 5); experiment: Somatostatin receptor subtype selectivity of binding; parameters: species or system human; settings: in words
Method: The somatostatin analogs were tested for their potency in inhibition of the binding of ^125I-Tyr^11-SRIF (based on the method described by Raynor et. al., Molecular Pharmacology, 1993, 43, 838-844) to membrane preparations expressing the transmembranal somatostatin receptors (SSTR-1, 2, 3, 4 or 5). The receptor preparations used for these tests were either from the cloned human receptors selectively and stably expressed in Chinese Hamster Ovary (CHO) cells or from cell lines naturally expressing the SSTRs. Typically, cell membranes were homogenated in Tris buffer in the presence of protease inhibitors and incubated for 30-40 minutes with ^125I-Tyr^11-SRIF with different concentrations of the tested sample. The binding reactions were filtered, the filters were washed and the bound radioactivity was counted in gamma counter. Non specific binding was defined as the radioactivity remaining bound in the presence of 1 μM unlabeled SRIF-14.
as §2

[2] = cited from earlier work
[3] = target: T4, cloned human somatostatin receptor 4 (human, UniProt P31391 1-388); experiment: 125I-Tyr11-SRIF displacement, cloned human SSTR-R4
T4 construct: whole, on cells; Tested as cell membrane preparations; also called SSTR-4; SSTR-R4
T4 sequence (P31391 whole entry): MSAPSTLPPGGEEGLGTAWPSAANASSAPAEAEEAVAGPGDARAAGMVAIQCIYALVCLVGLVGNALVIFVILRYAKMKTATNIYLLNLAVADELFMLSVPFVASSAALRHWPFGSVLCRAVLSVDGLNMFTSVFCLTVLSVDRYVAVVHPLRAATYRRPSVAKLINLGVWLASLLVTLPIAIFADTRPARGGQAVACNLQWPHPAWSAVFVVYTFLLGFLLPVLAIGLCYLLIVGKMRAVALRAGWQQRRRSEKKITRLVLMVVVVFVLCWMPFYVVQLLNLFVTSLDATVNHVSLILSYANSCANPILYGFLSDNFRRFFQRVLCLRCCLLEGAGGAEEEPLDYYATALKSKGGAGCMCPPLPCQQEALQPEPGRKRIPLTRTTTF

[4] = target: T5, cloned human somatostatin receptor 2 (human, UniProt P30874 1-369); experiment: inhibition of SRIF binding, cloned human SSTR-2; head says nM, values evidently molar
T5 construct: whole, on cells; Tested as cell membrane preparations; also called SSTR-2; SSTR2
T5 sequence (P30874 whole entry): as the sequence (P30874 whole entry) above
Text: as §1, with “counter.” for “counter. Non specific binding was defined as the radioactivity remaining bound in the presence of 1 μM unlabeled SRIF-14.”

[5] = target: T6, cloned human somatostatin receptor 3 (human, UniProt P32745 1-418); experiment: inhibition of SRIF binding, cloned human SSTR-3; head says nM, values evidently molar
T6 construct: whole, on cells; Tested as cell membrane preparations; also called SSTR-3; SSTR3
T6 sequence (P32745 whole entry): as the sequence (P32745 whole entry) above
Text: as §1, with “counter.” for “counter. Non specific binding was defined as the radioactivity remaining bound in the presence of 1 μM unlabeled SRIF-14.”

[6] = target: T7, cloned human somatostatin receptor 5 (human, UniProt P35346 1-364); experiment: inhibition of SRIF binding, cloned human SSTR-5; head says nM, values evidently molar
T7 construct: whole, on cells; Tested as cell membrane preparations; also called SSTR-5; SSTR5
T7 sequence (P35346 whole entry): as the sequence (P35346 whole entry) above
Text: as §1, with “counter.” for “counter. Non specific binding was defined as the radioactivity remaining bound in the presence of 1 μM unlabeled SRIF-14.”

[7] = target: T6, cloned human somatostatin receptor 3; experiment: 125I-Tyr11-SRIF displacement, membranes, cloned human SST-R3
Text: as §1, with “counter.” for “counter. Non specific binding was defined as the radioactivity remaining bound in the presence of 1 μM unlabeled SRIF-14.”

[8] = Table 15, read-out: IC50 (nM) for SST-R 2
[9] = IV, from Sandostatin overview, Sandoz 1992
[10] = SC, from Sandostatin overview, Sandoz 1992

Molecule: C[C@@H](O)[C@@H]1NC(=O)[C@H](CCCCN)NC(=O)[C@@H](Cc2c[nH]c3ccccc23)NC(=O)[C@H](Cc2c[nH]c3ccccc23)NC(=O)[C@H](Cc2ccccc2)NC(=O)CN(C(=O)[C@H](N)Cc2ccccc2)CCSSCCN(CC(N)=O)C(=O)[C@H](Cc2ccccc2)NC1=O [PTR 3219, (D)Phe-Gly(S2)*-Phe-Trp-(D)Trp-Lys-Thr-Phe-Gly(S2)*-NH2]
- IC50 (SSTR-2): 4 nM

Molecule: C[C@@H](O)[C@@H]1NC(=O)[C@H](CCCCN)NC(=O)[C@@H](Cc2c[nH]c3ccccc23)NC(=O)[C@H](Cc2c[nH]c3ccccc23)NC(=O)[C@H](Cc2ccccc2)NC(=O)[C@@H](N)CSSCCN(CC(N)=O)C(=O)[C@H](Cc2ccccc2)NC1=O [PTR 3197, Cys*-Phe-Trp-(D)Trp-Lys-Thr-Phe-Gly(S2)*-NH2] (H-CFW[dW]KTF[N(2-mercaptoethyl)Gly]-NH2; disulfide 1-8; N-terminus assumed)
- IC50 (SSTR-2; [8]): 4 nM
- IC50 (SSTR-5): 1 nM

Molecule: NCCCC[C@H]1NC(=O)[C@@H](Cc2c[nH]c3ccccc23)NC(=O)[C@H](Cc2ccccc2)NC(=O)[C@H](Cc2ccccc2)NC(=O)[C@H](Cc2ccccc2)NC(=O)CCN([C@@H](Cc2ccccc2)C(N)=O)C1=O [PTR 3171, Phe*-Phe-Phe-(D)Trp-(D)Lys-Phe(C2)-X] (FFF[dW][dK][Phe(Nα-CH2CH2CO)]-NH2; lactam N-6)
- inhibition at 1 µM (SSTR-3; SST-R3, 10^−6M, read-out: Percent inhibition of SRIF-14 binding): 87%
- inhibition at 0.1 µM (SSTR-3; SST-R3, 10^−7M, read-out: Percent inhibition of SRIF-14 binding): 40%
- inhibition at 0.01 µM (SSTR-3; SST-R3, 10^−8M, read-out: Percent inhibition of SRIF-14 binding): 12%
- inhibition at 1 µM (SSTR-5; SST-R5, 10^−6M, read-out: Percent inhibition of SRIF-14 binding): 60%
- inhibition at 0.1 µM (SSTR-5; SST-R5, 10^−7M, read-out: Percent inhibition of SRIF-14 binding): 10%
- inhibition at 0.01 µM (SSTR-5; SST-R5, 10^−8M, read-out: Percent inhibition of SRIF-14 binding): 18%
- remaining at 1 h (in vitro): 100%
- remaining at 3 h (in vitro): 100%
- remaining at 24 h (in vitro): 100%

Molecule: Phe(N2)-Tyr-(D)Trp-Lys-Val-Gly(C2)-2Nal-X ([N(2-aminoethyl)Phe]Y[dW]KV[N(CH2CH2CO)Gly][2Nal]; lactam 1-6; not fully specified) [PTR 3183]
- somatostatin receptor subtype selectivity [1]: selective for the type 5 somatostatin receptor

Molecule: Phe(N2)-Tyr-(D)Trp-Lys-Val-Val-Gly(C2)-X ([N(2-aminoethyl)Phe]Y[dW]KVV[N(CH2CH2CO)Gly]; lactam 1-7; not fully specified) [PTR 3185]
- somatostatin receptor subtype selectivity [1]: selective for the type 5 somatostatin receptor

Molecule: C[C@@H](O)[C@@H]1NC(=O)[C@H](CCCCN)NC(=O)[C@@H](Cc2c[nH]c3ccccc23)NC(=O)[C@H](Cc2c[nH]c3ccccc23)NC(=O)[C@H](Cc2ccccc2)NC(=O)CCSSCCN(CC(N)=O)C(=O)[C@H](Cc2ccccc2)NC1=O [PTR 3217, 3-Thiopropanoic-acid*-Phe-Trp-(D)Trp-Lys-Thr-Phe-Gly(S2)*-NH2]
- IC50 (SSTR-2; [8]): 37 nM
- IC50 (SSTR-3): 100 nM

Molecule: C[C@@H](O)[C@@H]1NC(=O)[C@H](CCCCN)NC(=O)[C@@H](Cc2c[nH]c3ccccc23)NC(=O)[C@H](Cc2c[nH]c3ccccc23)NC(=O)[C@H](Cc2ccccc2)NC(=O)CNCCSSCCN(CC(N)=O)C(=O)[C@H](Cc2ccccc2)NC1=O [PTR 3213, Gly(S2)*-Phe-Trp-(D)Trp-Lys-Thr-Phe-Gly(S2)*-NH2]
- IC50 (SSTR-2; [8]): 4 nM
- IC50 (SSTR-5): 12 nM

Molecule: C[C@@H](O)[C@@H]1NC(=O)[C@H](CCCCN)NC(=O)[C@@H](Cc2c[nH]c3ccccc23)NC(=O)[C@H](Cc2c[nH]c3ccccc23)NC(=O)[C@H](Cc2ccccc2)NC(=O)[C@@H](NC(=O)[C@H](N)Cc2ccccc2)CSSCCN(CC(N)=O)C(=O)[C@H](Cc2ccccc2)NC1=O [PTR 3207, (D)Phe-Cys*-Phe-Trp-(D)Trp-Lys-Thr-Phe-Gly(S2)*-NH2]
- IC50 (SSTR-2; [8]): 1 to 12 nM

Molecule: C[C@@H](O)[C@@H]1NC(=O)[C@H](CCCCN)NC(=O)[C@@H](Cc2c[nH]c3ccccc23)NC(=O)[C@H](Cc2c[nH]c3ccccc23)NC(=O)[C@H](Cc2ccccc2)NC(=O)CSSCCN(CC(N)=O)C(=O)[C@H](Cc2ccccc2)NC1=O [PTR 3211, Mercapto-acetic-acid(*)-Phe-Trp-(D)Trp-Lys-Thr-Phe-Gly(S2)*-NH2]
- IC50 (SSTR-2; [8]): 37 nM
- IC50 (SSTR-3): 12 to 37 nM

Molecule: C[C@@H](O)[C@@H]1NC(=O)[C@H](CCCCN)NC(=O)[C@@H](Cc2c[nH]c3ccccc23)NC(=O)[C@H](Cc2ccccc2)NC(=O)[C@@H](NC(=O)[C@H](N)Cc2ccccc2)CSSC[C@@H](C(=O)N[C@H](CO)[C@@H](C)O)NC1=O [Octreotide]
- remaining at 1 h (in vitro): 100%
- remaining at 3 h (in vitro): 100%
- remaining at 24 h (in vitro): 100%
- Clearance [2, 9]: 17.6 mL/min/kg
- T½β (min) circulating half life [2, 9]: 49 min
- Vss (ml/kg) Volume of distribution [2, 9]: 602 mL/kg
- circulation half-life ([2]; Octreotide): 40 min
- Clearance [2, 10]: 17.1 mL/min/kg
- F (%) Bioavailability [2, 10]: 103%
- T½β (min) circulating half life [2, 10]: 40 min

Molecule: Phe(N2)-Tyr-(D)2Nal-Lys-Val-Gly(C2)-Thr-X ([N(2-aminoethyl)Phe]Y[d2Nal]KV[N(CH2CH2CO)Gly]T; lactam 1-6; not fully specified; printed as Phe(N2)-Tyr-(D)2Nal-Lys-Val-Gly(C2)-Thr-X) [PTR 3209]
- somatostatin receptor subtype selectivity [1]: selective for the type 1 receptor

B1: PTR 3173 (peptide)
peptide: XFWWKTFG
modifications: GABA at 1 (written X); (D)Trp at 4; Gly(C3) building unit at 8 bridged by an amide to the N terminus (GABA); C-terminal amide
notes: Backbone-to-end cyclized octapeptide
- percent inhibition of SRIF-14 binding at 10^-6 M [3]: 5%
- percent inhibition of SRIF-14 binding at 10^-7M [3]: 5%
- percent inhibition of SRIF-14 binding at 10^-8M [3]: 0%
- percent inhibition of SRIF-14 binding at 10^-9 M [3]: 0%
- percent inhibition of SRIF-14 binding at 10^-10 M [3]: 0%
- percent inhibition of SRIF-14 binding at 10^-11 M [3]: 0%
- IC50 [4]: 1 nM
- IC50 [5]: 100 nM
- IC50 [6]: 1 nM

Molecule: FFF[dW][dK][Phe(C2)] (lactam N-6; reading uncertain, Backbone-to-end cyclized hexapeptide) [PTR 3171]
- percent inhibition of SRIF-14 binding at 10^-6M [7]: 87%
- percent inhibition of SRIF-14 binding at 10^-7M [7]: 40%
- percent inhibition of SRIF-14 binding at 10^-8M [7]: 12%

B2: PTR 3113 (peptide)
peptide: [Phe(C1)]FF[dW]K[N(2-aminoethyl)Phe]
modifications: lactam 1-6; reading uncertain
notes: Backbone cyclized hexapeptide somatostatin analog
- percent inhibition of SRIF-14 binding at 10^-6M [7]: 94%
- percent inhibition of SRIF-14 binding at 10^-7M [7]: 65%
- percent inhibition of SRIF-14 binding at 10^-8M [7]: 16%

Molecule: [N(2-aminoethyl)Phe]Y[dW]KS[2Nal][N(CH2CH2CO)Gly] (lactam 1-7; not fully specified, Backbone cyclized heptapeptide) [PTR 3201]
- IC50 [4]: 100 nM
- IC50 [5]: 10 nM
- IC50 [6]: 1 nM

Molecule: [N(2-aminoethyl)Phe]F[dW]KT[2Nal][N(CH2CH2CO)Gly] (lactam 1-7; not fully specified, Backbone cyclized heptapeptide) [PTR 3203]
- IC50 [4]: 100 nM
- IC50 [5]: 10 nM
- IC50 [6]: 10 nM

Molecule: [Phe(C3)]CF[dW]KTC[Phe(N3)]-NH2 (lactam 1-8; disulfide 2-7; reading uncertain, Bicyclic analog) [PTR 3205]
- IC50 [4]: 1 nM
